Experimental findings from article PMC10143702, “Kinetic and Regulatory Properties of Yarrowia lipolytica Aconitate Hydratase as a Model-Indicator of Cell Redox State under pH Stress” (International Journal of Molecular Sciences, 2023) are described below.

In experiment [1] the test system is T1, aconitate hydratase (AH).
T1 construct: gene ACO1
The note with it: read-out: Citrate / Km; enzyme from cells grown at pH 5.5; 50 mM Tris-HCl pH 7.8, 25 °C; partially purified.

The test system of experiment [2] is T2, aconitate hydratase (AH).
T2 construct: gene ACO1; cells grown at pH 5.5; [4Fe-4S] enzyme
The experiment in a line: spectrophotometric at […] nm; Lineweaver-Burk. The class given is biochemical, Yarrowia lipolytica. The conditions noted are these: enzyme from cells grown at pH 5.5; 50 mM Tris-HCl pH 7.8, 25 °C; partially purified; reverse reaction; read-out: Isocitrate / Km.

Read-outs that look alike come from different tables or passages of the source.

With `O=C(O)CC(O)(CC(=O)O)C(=O)O` [citrate], the Km in the experiment on aconitate hydratase (AH) [1] worked out at 320 ± 11 µM.

Regarding `O=C(O)C[C@H](C(=O)O)[C@@H](O)C(=O)O` [isocitrate], the Km with aconitate hydratase (AH) [2] was determined as 270 ± 15 µM.
